Converted amounts (≈) assume the structure as drawn.
Legend:
Format in all cases: functional
[1] = test system: Clostridium butyricum; test: Antibacterial activity against Clostridium butyricum by CLSI M11-A6 agar dilution method
[2] = test system: Bilophila wadsworthia; test: Antibacterial activity against Bilophila wadsworthia by CLSI M11-A6 agar dilution method
[3] = test system: Clostridium bartlettii; test: Antibacterial activity against Clostridium bartlettii by CLSI M11-A6 agar dilution method; conditions: Intestinibacter bartlettii
[4] = test system: Bifidobacterium breve; test: Antibacterial activity against Bifidobacterium breve by CLSI M11-A6 agar dilution method
[5] = test system: Ruminococcus torques; test: Antibacterial activity against Ruminococcus torques by CLSI M11-A6 agar dilution method; conditions: Mediterraneibacter torques
[6] = test system: Prevotella disiens; test: Antibacterial activity against Prevotella P disiens by CLSI M11-A6 agar dilution method
[7] = test system: Bacteroides thetaiotaomicron; test: Antibacterial activity against Bacteroides thetaiotaomicron by CLSI M11-A6 agar dilution method
[8] = test system: Bifidobacterium dentium; test: Antibacterial activity against Bifidobacterium dentium by CLSI M11-A6 agar dilution method
[9] = test system: Clostridium tertium; test: Antibacterial activity against Clostridium tertium by CLSI M11-A6 agar dilution method
[10] = test system: Parvimonas micra; test: Antibacterial activity against Peptostreptococcus micros by CLSI M11-A6 agar dilution method
[11] = test system: Prevotella buccae; test: Antibacterial activity against Prevotella buccae by CLSI M11-A6 agar dilution method; conditions: Segatella buccae
[12] = test system: Ruminococcus sp.; test: Antibacterial activity against Ruminococcus sp. by CLSI M11-A6 agar dilution method
[13] = test system: Phocaeicola vulgatus; test: Antibacterial activity against Bacteroides vulgatus by CLSI M11-A6 agar dilution method
[14] = test system: Ruminococcus flavefaciens; test: Antibacterial activity against Ruminococcus flavefaciens by CLSI M11-A6 agar dilution method
[15] = test system: Parabacteroides merdae; test: Antibacterial activity against Parabacteroides merdae by CLSI M11-A6 agar dilution method
[16] = test system: Clostridium celerecrescens; test: Antibacterial activity against Clostridium celerecrescens by CLSI M11-A6 agar dilution method; conditions: Lacrimispora celerecrescens
[17] = test system: Clostridium beijerinckii; test: Antibacterial activity against Clostridium beijerinckii by CLSI M11-A6 agar dilution method
[18] = test system: Bifidobacterium bifidum; test: Antibacterial activity against Bifidobacterium bifidum by CLSI M11-A6 agar dilution method
[19] = test system: Ruminococcus gnavus; test: Antibacterial activity against Ruminococcus gnavus by CLSI M11-A6 agar dilution method; conditions: Mediterraneibacter gnavus
[20] = test system: Enterocloster clostridioformis; test: Antibacterial activity against Clostridium clostridioforme by CLSI M11-A6 agar dilution method
[21] = test system: Ruminococcus lactaris; test: Antibacterial activity against Ruminococcus lactaris by CLSI M11-A6 agar dilution method
[22] = test system: Paraclostridium bifermentans; test: Antibacterial activity against Clostridium bifermentans by CLSI M11-A6 agar dilution method
[23] = test system: Streptococcus constellatus; test: Antibacterial activity against Streptococcus constellatus by CLSI M11-A6 agar dilution method
[24] = test system: [Clostridium] innocuum; test: Antibacterial activity against Clostridium innocuum by CLSI M11-A6 agar dilution method
[25] = test system: Peptostreptococcus anaerobius; test: Antibacterial activity against Peptostreptococcus anaerobius by CLSI M11-A6 agar dilution method
[26] = test system: Clostridium spiroforme; test: Antibacterial activity against Clostridium spiroforme by CLSI M11-A6 agar dilution method; conditions: Thomasclavelia spiroformis
[27] = test system: Clostridium glycolicum; test: Antibacterial activity against Clostridium glycolicum by CLSI M11-A6 agar dilution method; conditions: Terrisporobacter glycolicus
[28] = test system: Prevotella melaninogenica; test: Antibacterial activity against Prevotella melaninogenica by CLSI M11-A6 agar dilution method
[29] = test system: Anaerococcus tetradius; test: Antibacterial activity against Anaerococcus tetradius by CLSI M11-A6 agar dilution method
[30] = test system: Peptoniphilus asaccharolyticus; test: Antibacterial activity against Peptoniphilus asaccharolyticus by CLSI M11-A6 agar dilution method
[31] = test system: Prevotella corporis; test: Antibacterial activity against Prevotella corporis by CLSI M11-A6 agar dilution method
[32] = test system: Propionibacterium propionicum; test: Antibacterial activity against Propionibacterium propionicus by CLSI M11-A6 agar dilution method; conditions: Arachnia propionica
[33] = test system: Prevotella intermedia; test: Antibacterial activity against Prevotella intermedia by CLSI M11-A6 agar dilution method
[34] = test system: Flavonifractor plautii; test: Antibacterial activity against Clostridium orbiscindens by CLSI M11-A6 agar dilution method
[35] = test system: Clostridium leptum; test: Antibacterial activity against Clostridium leptum by CLSI M11-A6 agar dilution method
[36] = test system: Streptococcus intermedius; test: Antibacterial activity against Streptococcus intermedius by CLSI M11-A6 agar dilution method
[37] = test system: Clostridium perfringens; test: Antibacterial activity against Clostridium perfringens by CLSI M11-A6 agar dilution method
[38] = test system: Bacteroides fragilis; test: Antibacterial activity against Bacteroides fragilis by CLSI M11-A6 agar dilution method
[39] = test system: Clostridium scindens; test: Antibacterial activity against Clostridium scindens by CLSI M11-A6 agar dilution method
[40] = test system: Bifidobacterium longum; test: Antibacterial activity against Bifidobacterium longum by CLSI M11-A6 agar dilution method
[41] = test system: Catenibacterium mitsuokai; test: Antibacterial activity against Catenibacterium mitsuokai by CLSI M11-A6 agar dilution method
[42] = test system: Odoribacter splanchnicus; test: Antibacterial activity against Bacteroides splanchnicus by CLSI M11-A6 agar dilution method
[43] = test system: Paeniclostridium sordellii; test: Antibacterial activity against Clostridium sordellii by CLSI M11-A6 agar dilution method; conditions: Paraclostridium sordellii

Structure (SMILES): CCCCCCCCCC(=O)N[C@@H](Cc1c[nH]c2ccccc12)C(=O)N[C@H](CC(N)=O)C(=O)N[C@@H](CC(=O)O)C(=O)N[C@@H]1C(=O)NCC(=O)N[C@@H](CCCN)C(=O)N[C@@H](CC(=O)O)C(=O)N[C@H](C)C(=O)N[C@@H](CC(=O)O)C(=O)NCC(=O)N[C@H](CO)C(=O)N[C@@H]([C@H](C)CC(=O)O)C(=O)N[C@@H](CC(=O)c2ccccc2N)C(=O)O[C@@H]1C
- MIC50 [1]: 1 µg/mL (≈ 0.617 µM)
- MIC90 [1]: 8 µg/mL (≈ 4.94 µM)
- MIC [2]: > 128 µg/mL
- MIC50 [2]: > 128 µg/mL
- MIC90 [2]: > 128 µg/mL
- MIC50 [3]: 1 µg/mL (≈ 0.617 µM)
- MIC90 [3]: 8 µg/mL (≈ 4.94 µM)
- MIC50 [4]: 1 µg/mL (≈ 0.617 µM)
- MIC90 [4]: 32 µg/mL (≈ 19.7 µM)
- MIC50 [5]: 1 µg/mL (≈ 0.617 µM)
- MIC90 [5]: 2 µg/mL (≈ 1.23 µM)
- MIC [6]: > 128 µg/mL
- MIC50 [6]: > 128 µg/mL
- MIC90 [6]: > 128 µg/mL
- MIC [7]: > 128 µg/mL
- MIC50 [7]: > 128 µg/mL
- MIC90 [7]: > 128 µg/mL
- MIC50 [8]: 1 µg/mL (≈ 0.617 µM)
- MIC90 [8]: 32 µg/mL (≈ 19.7 µM)
- MIC50 [9]: 1 µg/mL (≈ 0.617 µM)
- MIC90 [9]: 8 µg/mL (≈ 4.94 µM)
- MIC50 [10]: 1 µg/mL (≈ 0.617 µM)
- MIC90 [10]: 4 µg/mL (≈ 2.47 µM)
- MIC [11]: > 128 µg/mL
- MIC50 [11]: > 128 µg/mL
- MIC90 [11]: > 128 µg/mL
- MIC50 [12]: 1 µg/mL (≈ 0.617 µM)
- MIC90 [12]: 4 µg/mL (≈ 2.47 µM)
- MIC [13]: > 128 µg/mL
- MIC50 [13]: > 128 µg/mL
- MIC90 [13]: > 128 µg/mL
- MIC50 [14]: 1 µg/mL (≈ 0.617 µM)
- MIC90 [14]: 2 µg/mL (≈ 1.23 µM)
- MIC [15]: > 128 µg/mL
- MIC50 [15]: > 128 µg/mL
- MIC90 [15]: > 128 µg/mL
- MIC50 [16]: 1 µg/mL (≈ 0.617 µM)
- MIC90 [16]: 8 µg/mL (≈ 4.94 µM)
- MIC50 [17]: 1 µg/mL (≈ 0.617 µM)
- MIC90 [17]: 8 µg/mL (≈ 4.94 µM)
- MIC50 [18]: 1 µg/mL (≈ 0.617 µM)
- MIC90 [18]: 32 µg/mL (≈ 19.7 µM)
- MIC50 [19]: ≤ 0.12 µg/mL
- MIC90 [19]: 0.25 µg/mL (≈ 0.154 µM)
- MIC50 [20]: 2 µg/mL (≈ 1.23 µM)
- MIC90 [20]: 4 µg/mL (≈ 2.47 µM)
- MIC50 [21]: 1 µg/mL (≈ 0.617 µM)
- MIC90 [21]: 2 µg/mL (≈ 1.23 µM)
- MIC50 [22]: 1 µg/mL (≈ 0.617 µM)
- MIC90 [22]: 8 µg/mL (≈ 4.94 µM)
- MIC50 [23]: 2 µg/mL (≈ 1.23 µM)
- MIC90 [23]: 4 µg/mL (≈ 2.47 µM)
- MIC50 [24]: 8 µg/mL (≈ 4.94 µM)
- MIC90 [24]: 16 µg/mL (≈ 9.87 µM)
- MIC50 [25]: 1 µg/mL (≈ 0.617 µM)
- MIC90 [25]: 4 µg/mL (≈ 2.47 µM)
- MIC50 [26]: 1 µg/mL (≈ 0.617 µM)
- MIC90 [26]: 8 µg/mL (≈ 4.94 µM)
- MIC50 [27]: 1 µg/mL (≈ 0.617 µM)
- MIC90 [27]: 8 µg/mL (≈ 4.94 µM)
- MIC [28]: > 128 µg/mL
- MIC50 [28]: > 128 µg/mL
- MIC90 [28]: > 128 µg/mL
- MIC50 [29]: 1 µg/mL (≈ 0.617 µM)
- MIC90 [29]: 4 µg/mL (≈ 2.47 µM)
- MIC50 [30]: 1 µg/mL (≈ 0.617 µM)
- MIC90 [30]: 4 µg/mL (≈ 2.47 µM)
- MIC [31]: > 128 µg/mL
- MIC50 [31]: > 128 µg/mL
- MIC90 [31]: > 128 µg/mL
- MIC50 [32]: 1 µg/mL (≈ 0.617 µM)
- MIC90 [32]: 32 µg/mL (≈ 19.7 µM)
- MIC [33]: > 128 µg/mL
- MIC50 [33]: > 128 µg/mL
- MIC90 [33]: > 128 µg/mL
- MIC50 [34]: 1 µg/mL (≈ 0.617 µM)
- MIC90 [34]: 8 µg/mL (≈ 4.94 µM)
- MIC50 [35]: 1 µg/mL (≈ 0.617 µM)
- MIC90 [35]: 8 µg/mL (≈ 4.94 µM)
- MIC50 [36]: 2 µg/mL (≈ 1.23 µM)
- MIC90 [36]: 4 µg/mL (≈ 2.47 µM)
- MIC50 [37]: 0.5 µg/mL (≈ 0.309 µM)
- MIC90 [37]: 1 µg/mL (≈ 0.617 µM)
- MIC [38]: > 128 µg/mL
- MIC50 [38]: > 128 µg/mL
- MIC90 [38]: > 128 µg/mL
- MIC50 [39]: 1 µg/mL (≈ 0.617 µM)
- MIC90 [39]: 8 µg/mL (≈ 4.94 µM)
- MIC50 [40]: 1 µg/mL (≈ 0.617 µM)
- MIC90 [40]: 32 µg/mL (≈ 19.7 µM)
- MIC50 [41]: 1 µg/mL (≈ 0.617 µM)
- MIC90 [41]: 32 µg/mL (≈ 19.7 µM)
- MIC [42]: > 128 µg/mL
- MIC50 [42]: > 128 µg/mL
- MIC90 [42]: > 128 µg/mL
- MIC50 [43]: 1 µg/mL (≈ 0.617 µM)
- MIC90 [43]: 8 µg/mL (≈ 4.94 µM)

Reference: ChEMBL document CHEMBL1671662, “In vitro activities of telavancin and six comparator agents against anaerobic bacterial isolates” (2009)
